Structures can show the parent of a compound that is named as a salt.
biological target: T1, human sigma 1 receptor (Homo sapiens, UniProt Q99720); test: Human sigma 1 receptor radioligand assay ([3H](+)-pentazocine, transfected HEK-293 membranes); type: binding; details: 5 nM [3H](+)-pentazocine, 37° C., 120 minutes
T1 construct: expressed in transfected cells; host or cells: HEK-293
Protocol: Biological Activity Pharmacological Study Human Sigma 1 Receptor Radioligand Assay
To investigate binding properties of sigma 1 receptor ligands to human sigma 1 receptor, transfected HEK-293 membranes and [^3H](+)-pentazocine (Perkin Elmer, NET-1056), as the radioligand, were used. The assay was carried out with 7 μg of membrane suspension, 5 nM of [^3H](+)-pentazocine in either absence or presence of either buffer or 10 μM Haloperidol for total and non-specific binding, respectively. Binding buffer contained Tris-HCl 50 mM at pH 8. Plates were incubated at 37° C. for 120 minutes. After the incubation period, the reaction mix was then transferred to MultiScreen HTS, FC plates (Millipore), filtered and plates were washed 3 times with ice-cold 10 mM TrisHCL (pH7.4). Filters were dried and counted at approximately 40% efficiency in a MicroBeta scintillation counter (Perkin-Elmer) using EcoScint liquid scintillation cocktail.

T1 sequence (Q99720 whole entry): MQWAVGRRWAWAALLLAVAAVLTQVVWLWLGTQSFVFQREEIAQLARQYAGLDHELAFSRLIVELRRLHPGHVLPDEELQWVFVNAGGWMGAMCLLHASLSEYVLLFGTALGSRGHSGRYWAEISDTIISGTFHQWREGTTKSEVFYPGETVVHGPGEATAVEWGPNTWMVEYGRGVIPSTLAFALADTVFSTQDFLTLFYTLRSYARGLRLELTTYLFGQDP

Row | SMILES | Ki
1 | CC(CN1CCn2c(cc3ccccc32)C1)N1CCN(C)CC1 (stereo not shown) [Example 1, 2-(2-(4-methylpiperazin-1-yl)propyl)-1,2,3,4-tetrahydropyrazino[1,2-a]indole] | 29.8 nM
2 | c1ccc2c(c1)CC1CN(CCN3CCCCCC3)CCN21 (stereo not shown) [Example 2, 2-(2-(azepan-1-yl)ethyl)-1,2,3,4,10,10a-hexahydropyrazino[1,2-a]indole] | 7.3 nM
3 | c1ccc2c(c1)cc1n2CCN(CCN2CCCCCC2)C1 [Example 3, 2-(2-(azepan-1-yl)ethyl)-1,2,3,4-tetrahydropyrazino[1,2-a]indole hydrochloride] | 3.9 nM
4 | c1ccc(CC2CCN(CCN3CCn4c(cc5ccccc54)C3)CC2)cc1 [Example 4, 2-(2-(4-benzylpiperidin-1-yl)ethyl)-1,2,3,4-tetrahydropyrazino[1,2-a]indole hydrochloride] | 14.6 nM
5 | CN1CCN(CCN2CCn3c(cc4ccccc43)C2)CC1 [Example 5, 2-(2-(4-methylpiperazin-1-yl)ethyl)-1,2,3,4-tetrahydropyrazino[1,2-a]indole hydrochloride] | 153 nM
6 | CC(CN1CCn2c(cc3ccccc32)C1)N1CCC(Cc2ccccc2)CC1 (stereo not shown) [Example 6, 2-(2-(4-benzylpiperidin-1-yl)propyl)-1,2,3,4-tetrahydropyrazino[1,2-a]indole maleate] | 175 nM
7 | CN(C)CCCCN1CCn2c(cc3ccccc32)C1 [Example 7, 4-(3,4-dihydropyrazino[1,2-a]indol-2(1H)-yl)-N,N-dimethylbutan-1-amine] | 89.1 nM
8 | Cc1c2n(c3ccccc13)CCN(CCN1CCCCCC1)C2 [Example 8, 2-(2-(azepan-1-yl)ethyl)-10-methyl-1,2,3,4-tetrahydropyrazino[1,2-a]indole] | 12.5 nM
9 | Fc1ccc2c(c1)cc1n2CCN(CCN2CCCCCC2)C1 [Example 9, 2-(2-(azepan-1-yl)ethyl)-8-fluoro-1,2,3,4-tetrahydropyrazino[1,2-a]indole] | 1.9 nM
10 | Cc1ccc2c(c1)cc1n2CCN(CC(C)N2CCCCCC2)C1 (stereo not shown) [Example 10, 2-(2-(azepan-1-yl)propyl)-8-methyl-1,2,3,4-tetrahydropyrazino[1,2-a]indole] | 7.4 nM
11 | Cc1c2n(c3ccccc13)CCN(CCN1CCC(Cc3ccccc3)CC1)C2 [Example 11, 2-(2-(4-benzylpiperidin-1-yl)ethyl)-10-methyl-1,2,3,4-tetrahydropyrazino[1,2-a]indole] | 21.4 nM
12 | Fc1ccc2c(c1)cc1n2CCN(CCCCN2CCCCC2)C1 [Example 12, 8-fluoro-2-(4-(piperidin-1-yl)butyl)-1,2,3,4-tetrahydropyrazino[1,2-a]indole] | 7.6 nM
13 | c1ccc2c(c1)cc1n2CCN(CCCN2CCCCCC2)C1 [Example 13, 2-(3-(azepan-1-yl)propyl)-1,2,3,4-tetrahydropyrazino[1,2-a]indole] | 19.9 nM
14 | c1ccc2c(c1)cc1n2CCN(CCCCN2CCCCC2)C1 [Example 14, 2-(4-(piperidin-1-yl)butyl)-1,2,3,4-tetrahydropyrazino[1,2-a]indole] | 13.5 nM
15 | Fc1ccc2c(c1)cc1n2CCN(CCCCN2CCCCCC2)C1 [Example 15, 2-(4-(azepan-1-yl)butyl)-8-fluoro-1,2,3,4-tetrahydropyrazino[1,2-a]indole] | 8.6 nM
16 | CN1CCN(CCCCN2CCn3c(cc4ccccc43)C2)CC1 [Example 16, 2-(4-(4-methylpiperazin-1-yl)butyl)-1,2,3,4-tetrahydropyrazino[1,2-a]indole] | 35.8 nM
17 | CC(CN1CCn2c(cc3ccccc32)C1)N1CCN(C2CCCCC2)CC1 (stereo not shown) [Example 17, 2-(2-(4-cyclohexylpiperazin-1-yl)propyl)-1,2,3,4-tetrahydropyrazino[1,2-a]indole] | 9.2 nM
18 | CC(CN1CCn2c(cc3cc(F)ccc32)C1)N1CCN(C)CC1 (stereo not shown) [Example 18, 8-fluoro-2-(2-(4-methylpiperazin-1-yl)propyl)-1,2,3,4-tetrahydropyrazino[1,2-a]indole] | 14.1 nM
19 | CN(C)CCCCN1CCN2c3ccccc3CC2C1 (stereo not shown) [Example 19, N,N-dimethyl-4-(3,4,10,10a-tetrahydropyrazino[1,2-a]indol-2(1H)-yl)butan-1-amine] | 153 nM
